Source: ChEMBL document CHEMBL3351545, “Development of photo-controllable hydrogen sulfide donor applicable in live cells” (Bioorg Med Chem Lett, 2015)
The source made the active and inactive calls. The calls are words filed in the database; no cut-off is given here.

Assays:
[1] = Induction of H2S release in phosphate buffer at 100 uM at pH 7.4 UV-irrdiated for 400 secs by methylene-blue assay; type: physicochemical; conditions: pH 7.4, 0.111111 h
[2] = system: HEK293; assay: Induction of H2S release in HEK293 cells at 100 uM incubated for 30 mins followed by UV photo-irradiation for 5 mins by fluorescence microscopic analysis; type: functional, cell-based; conditions: Homo sapiens
[3] = Induction of H2S release in phosphate buffer at 100 uM at pH 7.4 UV-irrdiated for 300 secs by fluorescence assay relative to control; type: physicochemical; conditions: pH 7.4, 5 min
[4] = Stability of the compound in phosphate buffer at 100 uM at pH 7.4 under dark condition after 1 month by HPLC analysis; type: physicochemical; conditions: pH 7.4, 730.5 h
[5] = Induction of H2S release in phosphate buffer at 100 uM at pH 7.4 followed by UV-irrdiation by methylene-blue assay; type: physicochemical; conditions: pH 7.4, 100 µM, TDE = time-dependent effect
[6] = system: HEK293; assay: Cytotoxicity against HEK293 cells at 1 to 30 uM using acetoxymethylated compound after 2 days by MTT assay; type: cell-based; conditions: human, hek293, 48 h
[7] = system: HEK293; assay: Induction of H2S release in HEK293 cells at 100 uM using acetoxymethylated compound incubated for 30 mins followed by UV photoirradiation for 5 mins by fluorescence microscopic analysis; type: functional, cell-based; conditions: Homo sapiens

SMILES	Activity [1] [µM]	Activity [2]	Activity [3]	Stability [4]	Activity [5]	Activity [6]	Activity [7]
CC(CSCC(C)(C(=O)O)c1cccc(C(=O)c2ccccc2)c1)(C(=O)O)c1cccc(C(=O)c2ccccc2)c1 (configuration not stated)	15	inactive					
CC(CSCC(C)(C(=O)O)c1ccc2oc3ccccc3c(=O)c2c1)(C(=O)O)c1ccc2oc3ccccc3c(=O)c2c1 (configuration not stated)			Active	Stable	tde	Non-toxic	Active
